One experiment has as its target DNA-PK kinase (Homo sapiens, UniProt P78527). The experiment can be described thus: Inhibition of DNA-PK kinase activity (ADP-Glo). The following applies: averaged values over all measurements on all batches; 150 μM ATP, 1 hour at 25° C. In kind it is biochemical. As to the method: Inhibition of DNA-PK Kinase Activity Assay buffer was 50 mM Hepes pH 7.5 containing 0.1 mg/ml BSA (albumin from bovine serum), 50 μM DTT (dithiothreitol), 20 mM MgCl2 and 10 μg/ml calf thymus DNA (activation buffer). Kinase reaction was carried out in OptiPlate 384 plates (PerkinElmer 6007299). All compounds tested were dissolved in dimethyl sulfoxide (DMSO) and further dilutions were made in assay buffer. Final DMSO concentration was 1% (v/v). Pre-incubation consisted of compound (1% DMSO in control and blank wells) and 24 ng/well DNA-PK kinase to allow the compounds to bind the enzyme (with buffer in the blank wells) for 15 minutes; after this time 150 μM Adenosine-5′-triphosphate (ATP) and 0.2 μg/μl DNA-PK substrate were added to commence the kinase reaction. Incubations were carried out for 1 hour at 25° C. Kinase activity was determined by using ADP-Glo™ reagent from Promega according to the manufacturer's instructions. The light generated was measured using a luminometer (EnVision, PerkinElmer). Signal obtained in the wells containing blank samples was subtracted from all other wells and IC50 values were determined by fitting a sigmoidal curve to % inhibition of control versus Log10 compound concentration.
Background: ADP-Glo turns the ADP formed in a reaction into a luminescent signal.

Experiment [1] has as its target T1, Phospho-DNA-PK in FaDu Cells (Homo sapiens, UniProt P78527).
T1 construct: host or cells: FaDu
The experiment can be described thus: Effect of compounds on phospho-DNA-PK in FaDu cells (MesoScale sandwich immunoassay). In kind it is cell-based. The conditions noted are these: 1 hour pre-incubation, 1 μg/ml Neocarzinostatin 2 hours, averaged values, read-out: MSD FaDu IC50. As to the method: Effect of Compounds on Phospho-DNA-PK in FaDu Cells
All compounds tested were dissolved in DMSO and further dilutions were made in culture medium. Final DMSO concentration was 0.3% (v/v). The human FaDu cells (ATCC) were cultured in MEM medium supplemented with Glutamax and 10% fetal calf serum (PAA). Cells were routinely maintained at densities of 0.2×10^6 cells per ml at 37° C. in a humidified 5% CO2, 95% air atmosphere. Cells were passaged twice a week, splitting back to obtain the low density. Cells were seeded in 96 well plates (Corning 3904) at 1×10^6 cells per ml media in a volume of 50 μl per well. Seeded cells were incubated at 37° C. in a humidified 5% CO2, 95% air atmosphere for 24 hours. Compounds were added (25 μl) to the cells and pre-incubated for 1 hour. 1 μg/ml DNA-damaging agent Neocarzinostatin (NCS) was added (25 μl) to a final volume of 100 μl and incubated for 2 hours at 37° C. in a humidified 5% CO2, 95% air atmosphere. After this period of time plates were removed from the incubator and the 100 μl dilutions were removed from the wells gently, prior to the addition of 75 μl cold RIPA lysis buffer with protease and phosphatase inhibitors to achieve the cells lysis, followed by shaking on a plate shaker at 4° C. for 30 minutes. At the end of this incubation, lysate was assessed for phospho-DNA-PK levels by sandwich immune-assay carried out in anti-mouse antibody coated MesoScale plates. […] Signal obtained in the wells containing blank samples was subtracted from all other wells and IC50 values were determined by fitting a sigmoidal curve to % inhibition of control versus Logo compound concentration.

`c1cnc(NC2CC3(CCN(c4nc(N5CCOCC5)cc5ncccc45)C3)C2)nc1` (mixture of isomers) [Example 1]: the figures for the IC50 (on DNA-PK kinase; in experiment [1]) were 82 nM and 832 nM, respectively.
For `c1cnc(NC2CCC3CN(c4nc(N5CCOCC5)cc5ncccc45)CC32)nc1` (centres unmarked) [Example 13], in that order: 71 nM and 2840 nM.
For `C[C@H]1COCCN1c1cc2ncccc2c(O[C@H]2CC[C@@H](c3nc[nH]n3)CC2)n1` [Example 67], in that order: 32 nM and 891 nM.
Take `N#C[C@H]1CC[C@@H](Oc2nc(N3CCOCC3)cc3ncccc23)CC1` [Example 4]: the IC50 (as a rule, the concentration needed to halve the response being measured) on DNA-PK kinase is 37 nM; in experiment [1], 1830 nM.
The like results for `c1cnnc(NCC2CCN(c3nc(N4CCOCC4)cc4ncccc34)CC2)c1` [Parent compound 131] were, in that order, 63 nM and 7310 nM.
`Cc1cc(C(N)=O)nc(NCC2CCN(c3nc(N4CCOCC4)cc4ncccc34)CC2)n1` [Example 101]: the IC50 against DNA-PK kinase turned out to be 32 nM; in experiment [1], 2130 nM.
Regarding `c1cnc2cc(N3CCOCC3)nc(NCC3CCN(c4nnc[nH]4)CC3)c2c1` [Parent compound 152], the IC50 on DNA-PK kinase came to 19 nM; in experiment [1], 5790 nM.
The like results for `c1cncc(NCC2CCN(c3nc(N4CCOCC4)cc4ncccc34)CC2)c1` [Example 133] were, in that order, 155 nM and 11400 nM.
As for `NC(=O)[C@H]1CC[C@@H](Oc2nc(N3CCOCC3)cc3ncccc23)CC1` [Example 3], the IC50 against DNA-PK kinase stood at 9 nM; in experiment [1], 361 nM.
The like results for `C[C@H]1CN(c2ncn[nH]2)CC[C@H]1Oc1nc(N2CCOCC2)cc2ncccc12` [Parent compound 161] were, in that order, 125 nM and 2890 nM.
Take `c1cnc(NC2CCN(c3nc(N4CCOCC4)cc4ncccc34)CC2)nc1` [Example 16]: the figures for the IC50 (on DNA-PK kinase; in experiment [1]) were 139 nM and 18600 nM, respectively.
For `C[C@H]1CN(c2ncn[nH]2)CC[C@@H]1Oc1nc(N2CCOCC2)cc2ncccc12` (single isomer, unassigned) [Parent compound 158], in that order: 102 nM and 10000 nM.
For `OCCC1CCN(c2nc(N3CCOCC3)cc3ncccc23)CC1` [Example 15], in that order: 108 nM and 2150 nM.
For `Oc1cnc2cc(N3CCOCC3)nc(O[C@H]3CC[C@@H](c4ccccc4)CC3)c2c1` [Example 165], in that order: 31 nM and 1170 nM.
As to `NC(=O)[C@H]1CC[C@H](COc2nc(N3CCOCC3)cc3ncccc23)CC1` [Example 57], the IC50 was determined as 120 nM against DNA-PK kinase and 2460 nM in experiment [1].
Take `CS(=O)(=O)N1CCN(c2nc(N3CCOCC3)cc3ncccc23)CC1` [Example 144]: the IC50 at DNA-PK kinase was determined as 117 nM; in experiment [1], 2890 nM.
Take `CC1CN(c2ncn[nH]2)CCC1Oc1nc(N2CCOCC2)cc2ncccc12` (centres unmarked) [Example 157]: the IC50 against DNA-PK kinase was determined as 160 nM; in experiment [1], 3000 nM.
The like results for `c1cnc(NC2CCCCN(c3nc(N4CCOCC4)cc4ncccc34)C2)nc1` (centres unmarked) [Example 20] were, in that order, 159 nM and 8870 nM.
The like results for `Cn1cnc([C@H]2CC[C@@H](Oc3nc(N4CCOCC4)cc4ncccc34)CC2)n1` [Example 72] were, in that order, 11 nM and 218 nM.
The like results for `Oc1cnc2cc(N3CCOCC3)nc(O[C@H]3CC[C@@H](n4cc(F)cn4)CC3)c2c1` [Example 163] were, in that order, 2 nM and 134 nM.
Turning to `N#Cc1cccnc1NCC1CCN(c2nc(N3CCOCC3)cc3ncccc23)CC1` [Example 115], the IC50 on DNA-PK kinase was 120 nM; in experiment [1], 7990 nM.
The like results for `c1cnc(N[C@H]2[C@@H]3CN(c4nc(N5CCOCC5)cc5ncccc45)C[C@@H]32)nc1` [Example 12] were, in that order, 70 nM and 2550 nM.
Take `c1cnc(N2CC(COc3nc(N4CCOCC4)cc4ncccc34)C2)nc1` [Example 128]: the values for the IC50 (against DNA-PK kinase; in experiment [1]) were 30 nM and 1390 nM, respectively.
With `[2H]C1([2H])OC([2H])([2H])C([2H])([2H])N(c2cc3ncccc3c(O[C@H]3CC[C@@H](c4nc[nH]n4)CC3)n2)C1([2H])[2H]` [Example 65], the figures for the IC50 (on DNA-PK kinase; in experiment [1]) were 2 nM and 210 nM, respectively.
For `c1cnc(NCCCCOc2nc(N3CCOCC3)cc3ncccc23)nc1` [Example 8], in that order: 279 nM and 6660 nM.
Consider `c1cnc2cc(N3CCOCC3)nc(O[C@H]3CC[C@@H](c4nnc[nH]4)CC3)c2c1` [Example 71], for which the IC50 amounted to 2 nM against DNA-PK kinase and 62 nM in experiment [1].
The like results for `COc1ccnc(NCC2CCN(c3nc(N4CCOCC4)cc4ncccc34)CC2)n1` [Example 111] were, in that order, 88 nM and 2140 nM.
The like results for `c1cnc(NCCC2CN(c3nc(N4CCOCC4)cc4ncccc34)C2)nc1` [Example 21] were, in that order, 164 nM and 7960 nM.
As for `CC(C)(C)OC(=O)N1CCN(c2nc(N3CCOCC3)cc3ncccc23)CC1` [Example 19], the IC50 stood at 159 nM against DNA-PK kinase and 6560 nM in experiment [1].
For `c1cnc2cc(N3CCOCC3)nc(N3CCC(CNc4cnccn4)CC3)c2c1` [Example 114], in that order: 117 nM and 9670 nM.
For `O=C1NCC(CNc2nc(N3CCOCC3)cc3ncccc23)CO1` (centres unmarked) [Parent compound 97], in that order: 27 nM and 3330 nM.
The like results for `N#Cc1cnc(NCC2CCN(c3nc(N4CCOCC4)cc4ncccc34)CC2)nc1` [Example 107] were, in that order, 66 nM and 2370 nM.
As for `C[C@@H]1COCCN1c1cc2ncccc2c(O[C@H]2CC[C@@H](c3nc[nH]n3)CC2)n1` [Example 69], the IC50 against DNA-PK kinase worked out at 261 nM; in experiment [1], 5050 nM.
For `c1cnc2cc(N3CCOCC3)nc(OC3CCN(c4ncn[nH]4)CC3)c2c1` [Example 155], in that order: 134 nM and 7860 nM.
For `N#Cc1cnc(NCC2CCN(c3nc(N4CCOCC4)cc4ncccc34)CC2)nc1N` [Example 103], in that order: 45 nM and 3700 nM.
The like results for `Cc1cc(C)nc(NCC2CCN(c3nc(N4CCOCC4)cc4ncccc34)CC2)n1` [Example 117] were, in that order, 125 nM and 1930 nM.
As to `c1cnc2cc(N3CCOCC3)nc(O[C@H]3CC[C@@H](n4cncn4)CC3)c2c1` [Example 80], the figures for the IC50 (against DNA-PK kinase; in experiment [1]) were 7 nM and 240 nM, respectively.
With `CCCCc1nc2cc(N3CCOCC3)nc(O[C@H]3CC[C@@H](n4cc(F)cn4)CC3)c2cc1O` [Parent compound 175], the IC50 worked out at 18 nM against DNA-PK kinase and 464 nM in experiment [1].
The like results for `c1cnc2cc(N3CCOCC3)nc(O[C@H]3CC[C@@H](n4nccn4)CC3)c2c1` [Example 81] were, in that order, 10 nM and 507 nM.
For `CN(C)S(=O)(=O)n1ccnc1C1CCN(c2nc(N3CCOCC3)cc3ncccc23)CC1` [Example 14], the results for the concentration for half-maximal inhibition (IC50) (on DNA-PK kinase; in experiment [1]) were 73 nM and 4470 nM, respectively.
For `COC(=O)c1cc(N)nc(NCC2CCN(c3nc(N4CCOCC4)cc4ncccc34)CC2)n1` [Example 100], in that order: 32 nM and 2360 nM.
Turning to `c1cnc2cc(N3CCOCC3)nc(OCC3CCN(c4ncn[nH]4)CC3)c2c1` [Parent compound 154], the IC50 on DNA-PK kinase was 26 nM; in experiment [1] it was 1070 nM.
The like results for `Cc1nnc([C@H]2CC[C@@H](Oc3nc(N4CCOCC4)cc4ncccc34)CC2)[nH]1` [Example 70] were, in that order, 1 nM and 113 nM.
The like results for `c1cnc(N2CCC3CN(c4nc(N5CCOCC5)cc5ncccc45)CC32)nc1` (centres unmarked) [Example 17] were, in that order, 148 nM and 4450 nM.
`c1cnc2cc(N3CCOCC3)nc(OC[C@H]3CC[C@@H](c4ncn[nH]4)CC3)c2c1` [Example 73]: the values for the IC50 (against DNA-PK kinase; in experiment [1]) were 55 nM and 1730 nM, respectively.
The like results for `CS(=O)(=O)[C@H]1CC[C@@H](Oc2nc(N3CCOCC3)cc3ncccc23)CC1` [Example 82] were, in that order, 141 nM and 1890 nM.

For the origin of these results see patent US20230063457A1, “DNA-PK INHIBITING COMPOUNDS” (Provincial Health Services Authority, priority 2019, published 2023).
